# Results from patent US20240366581A1 (Hoffmann-La Roche Inc., priority 2022, published 2024).
# Tests used:
# Assay type in all cases: biochemical
# SIK2 = SIK2 (Homo sapiens (Human), UniProt Q9H0K1); test: SIK2 enzymatic activity assay, RapidFire mass spectrometry (CHK-peptide phosphorylation); conditions: 0.5 nM SIK2, CHK-peptide, ATP, 30 min pre-incubation, 45 min reaction, RapidFire MS; read-out: SIK2 RF IC50
# Method: (§1) In the presence of SIK2 (resp. SIK1 or SIK3) and ATP the CHK-peptide ([…] with C-terminal arginine amide modification) were phosphorylated at one of the four feasible serine's. Only one phosphorylation is observed under the assay conditions. 60 nl of each compound dilution series (12 point; dilution factor 3, generally 30 μM to 170 pM) in DMSO were transferred by acoustic dispensing to the assay plate and 30 min pre-incubated (ambient temperature) after the addition of 5 μl SIK1 (5 nM) resp. 5 μl SIK2 (0.5 nM) or 7 μl SIK3 (1.5 nM) in assay-buffer (12.5 mM HEPES (pH 7.0), 10 mM magnesium acetate, 0.005% BSA). 10 μM CHK-peptide solution and 5 μl 100 μM ATP for SIK1 & SIK2 resp. 3 μl for SIK3 in assay-buffer were added and incubated ambient for 45 min. 40 μl 0.125% formic acid in water were added to quench the reaction. RapidFire (RF) Mass Spectrometry was utilized for data generation as described below. The multiple charged species (3-5 charges) for the phosphorylated and non-phosphorylated form measured by MRM (Multiple Reaction Monitoring; API5000 or 6500+) or EIC (Extracted Ion Current; QToF) were summed up and the ratio calculated (sum phosphorylated species/sum all species) for data evaluation. Normalization was performed by Genedata software based on the non-inhibition control DMSO and the commercially available SIK inhibitor @ 1 μM YKL-05-099 (CAS number 1936529-65-5). The results of the assay are expressed in half-maximal inhibitory concentrations (IC50s) and are summarized below in Table 1.
# (§2) Samples were aspirated by vacuum for max. 600 ms and loaded to C4-cartridge (Agilent; #G9203A) for 3000 ms@1.5 ml/min with 0.1% formic acid in water. Afterwards samples were transferred to the API5000 (API6500+) or QToF mass spectrometer for 4000 ms@1.25 ml/min with 90% acetonitrile; 10% water; 0.007% TFA; 0.093 formic acid. The cartridge was reconditioned for additional 500 ms with 0.1% formic acid in water
# (§3) All MS analyses using the following MS-setup in MRM mode: Electrospray positive; Ion Spray Voltage: 4000V; Temperature: 550° C.; Collision Gas: 5; Curtain Gas: 15; Gas1: 40; Gas 2: 42; EP: 10
# (§4) All MS analyses using the following MS-setup in Mode MS: Dual AJS Electrospray positive; VCap: 3000V; Drying & Sheath gas: 340° C.@81/min; Nebulizer: 60 psig; Nozzle Voltage: 2000V; Fragmentor: 130V; Skimmer: 35V; Oct1 RF Vpp: 700V; Ref masses on@5spectra/s
# SIK1 = SIK1 (Homo sapiens (Human), UniProt P57059); test: SIK1 enzymatic activity assay, RapidFire mass spectrometry (CHK-peptide phosphorylation); conditions: 5 nM SIK1, CHK-peptide, ATP, 30 min pre-incubation, 45 min reaction, RapidFire MS; read-out: SIK1 RF IC50
# Sequence of SIK1 (P57059 whole entry): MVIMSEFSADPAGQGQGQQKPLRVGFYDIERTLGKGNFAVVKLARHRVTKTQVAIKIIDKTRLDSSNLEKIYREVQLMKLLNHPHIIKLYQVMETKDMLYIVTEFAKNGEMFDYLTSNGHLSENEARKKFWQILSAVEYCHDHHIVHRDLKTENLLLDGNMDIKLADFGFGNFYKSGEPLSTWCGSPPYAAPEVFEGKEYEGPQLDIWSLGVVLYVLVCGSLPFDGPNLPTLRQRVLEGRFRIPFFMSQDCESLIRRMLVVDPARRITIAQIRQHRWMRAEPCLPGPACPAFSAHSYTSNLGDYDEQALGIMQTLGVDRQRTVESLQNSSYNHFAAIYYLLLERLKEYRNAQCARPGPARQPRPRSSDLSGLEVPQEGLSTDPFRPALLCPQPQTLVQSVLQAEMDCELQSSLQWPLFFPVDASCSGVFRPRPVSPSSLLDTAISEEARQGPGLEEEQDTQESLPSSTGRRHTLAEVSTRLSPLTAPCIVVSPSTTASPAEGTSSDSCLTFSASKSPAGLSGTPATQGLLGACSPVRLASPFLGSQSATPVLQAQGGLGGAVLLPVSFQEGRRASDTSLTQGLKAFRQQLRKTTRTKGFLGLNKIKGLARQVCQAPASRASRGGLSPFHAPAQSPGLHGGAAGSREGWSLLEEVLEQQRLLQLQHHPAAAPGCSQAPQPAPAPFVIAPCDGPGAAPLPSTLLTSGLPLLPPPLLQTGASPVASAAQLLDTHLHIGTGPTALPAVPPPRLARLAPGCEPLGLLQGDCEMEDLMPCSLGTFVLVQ
# Method: as §1, §2, §3, §4
# SIK3 = SIK3 (Homo sapiens (Human), UniProt Q9Y2K2); test: SIK3 enzymatic activity assay, RapidFire mass spectrometry (CHK-peptide phosphorylation); conditions: 1.5 nM SIK3, CHK-peptide, ATP, 30 min pre-incubation, 45 min reaction, RapidFire MS; read-out: SIK3 RF IC50
# Sequence of SIK3 (Q9Y2K2 whole entry): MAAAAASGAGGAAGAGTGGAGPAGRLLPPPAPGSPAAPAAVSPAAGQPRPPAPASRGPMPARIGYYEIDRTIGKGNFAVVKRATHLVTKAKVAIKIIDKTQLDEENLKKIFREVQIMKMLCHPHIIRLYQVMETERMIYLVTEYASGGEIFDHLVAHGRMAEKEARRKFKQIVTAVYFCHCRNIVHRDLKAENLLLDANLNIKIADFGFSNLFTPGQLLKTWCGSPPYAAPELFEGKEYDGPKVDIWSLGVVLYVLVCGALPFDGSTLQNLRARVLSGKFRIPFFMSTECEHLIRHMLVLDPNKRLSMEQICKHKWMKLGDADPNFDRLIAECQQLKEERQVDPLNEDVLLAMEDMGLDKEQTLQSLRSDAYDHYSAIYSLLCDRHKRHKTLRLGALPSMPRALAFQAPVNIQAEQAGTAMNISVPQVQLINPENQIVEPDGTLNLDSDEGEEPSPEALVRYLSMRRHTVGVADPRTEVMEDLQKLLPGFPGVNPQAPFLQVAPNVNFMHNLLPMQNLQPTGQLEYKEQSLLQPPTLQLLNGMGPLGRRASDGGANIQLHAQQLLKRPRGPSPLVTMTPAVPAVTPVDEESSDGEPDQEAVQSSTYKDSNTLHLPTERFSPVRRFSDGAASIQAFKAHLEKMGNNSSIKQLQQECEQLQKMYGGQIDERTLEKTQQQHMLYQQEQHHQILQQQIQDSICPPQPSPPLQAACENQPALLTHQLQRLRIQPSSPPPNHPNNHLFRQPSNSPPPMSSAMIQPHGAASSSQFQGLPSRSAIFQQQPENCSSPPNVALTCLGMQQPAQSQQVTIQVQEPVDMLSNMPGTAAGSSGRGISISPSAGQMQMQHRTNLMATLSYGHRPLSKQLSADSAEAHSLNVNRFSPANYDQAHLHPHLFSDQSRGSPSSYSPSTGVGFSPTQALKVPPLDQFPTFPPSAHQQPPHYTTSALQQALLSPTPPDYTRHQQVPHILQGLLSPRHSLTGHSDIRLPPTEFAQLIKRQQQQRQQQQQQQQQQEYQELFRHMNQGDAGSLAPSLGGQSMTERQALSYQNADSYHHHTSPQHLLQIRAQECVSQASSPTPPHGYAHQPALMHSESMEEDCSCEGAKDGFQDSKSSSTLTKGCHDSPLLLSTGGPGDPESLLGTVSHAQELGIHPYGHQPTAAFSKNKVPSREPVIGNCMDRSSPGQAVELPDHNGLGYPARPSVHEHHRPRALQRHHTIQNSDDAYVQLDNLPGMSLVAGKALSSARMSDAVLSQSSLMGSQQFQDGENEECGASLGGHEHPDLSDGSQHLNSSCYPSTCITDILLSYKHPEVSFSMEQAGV
# Method: as §1, §2, §3, §4
# Sequence of SIK2 (Q9H0K1 whole entry): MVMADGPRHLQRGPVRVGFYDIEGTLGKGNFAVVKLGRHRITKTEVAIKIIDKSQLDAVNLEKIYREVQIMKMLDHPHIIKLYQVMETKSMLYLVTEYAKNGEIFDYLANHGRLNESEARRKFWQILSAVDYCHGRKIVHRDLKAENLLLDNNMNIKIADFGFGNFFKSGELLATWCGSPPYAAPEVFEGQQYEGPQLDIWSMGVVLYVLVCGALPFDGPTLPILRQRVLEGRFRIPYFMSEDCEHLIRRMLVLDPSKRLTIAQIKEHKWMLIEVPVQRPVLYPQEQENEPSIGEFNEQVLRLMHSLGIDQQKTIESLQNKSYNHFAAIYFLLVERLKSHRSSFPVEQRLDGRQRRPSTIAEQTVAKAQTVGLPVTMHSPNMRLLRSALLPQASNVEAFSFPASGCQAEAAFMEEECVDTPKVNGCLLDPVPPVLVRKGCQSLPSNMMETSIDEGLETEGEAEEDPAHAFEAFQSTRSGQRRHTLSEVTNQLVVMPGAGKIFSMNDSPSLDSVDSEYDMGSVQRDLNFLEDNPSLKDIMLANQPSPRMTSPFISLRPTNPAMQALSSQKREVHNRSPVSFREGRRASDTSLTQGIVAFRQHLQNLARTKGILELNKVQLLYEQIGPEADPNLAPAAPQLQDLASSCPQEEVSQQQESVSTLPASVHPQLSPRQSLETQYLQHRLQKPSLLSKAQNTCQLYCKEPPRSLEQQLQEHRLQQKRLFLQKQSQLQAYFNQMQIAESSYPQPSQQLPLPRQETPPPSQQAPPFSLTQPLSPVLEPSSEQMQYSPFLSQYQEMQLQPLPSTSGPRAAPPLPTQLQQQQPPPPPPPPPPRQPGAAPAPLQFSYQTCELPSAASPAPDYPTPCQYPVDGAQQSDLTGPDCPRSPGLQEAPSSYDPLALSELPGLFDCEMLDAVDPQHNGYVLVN
SMILES,IC50 (SIK2),IC50 (SIK1),IC50 (SIK3)
"Cc1cc(C#N)nn1-c1nc(-n2cnc3cc(N[C@H]4CNC[C@H]4F)ccc32)ccc1C(N)=O [Example 25, 2-(3-Cyano-5-methyl-pyrazol-1-yl)-6-[5-[[(3S,4R)-4-fluoropyrrolidin-3-yl]amino]benzimidazol-1-yl]pyridine-3-carboxamide; formic acid]",171 nM,914 nM,257 nM
"COC(=O)c1ccc(-n2cnc3cc(Nc4ccc(C)nn4)ccc32)nc1-n1nc(OC)cc1C [Example 26, Methyl 2-(3-methoxy-5-methyl-pyrazol-1-yl)-6-[5-[(6-methylpyridazin-3-yl)amino]benzimidazol-1-yl]pyridine-3-carboxylate]",154 nM,17800 nM,49.4 nM
"CC(=O)c1ccc(-n2cnc3cc(Nc4ccc(C)nn4)ccc32)nc1-n1nc(C#N)cc1C [Example 27, 1-[3-Acetyl-6-[5-[(6-methylpyridazin-3-yl)amino]benzimidazol-1-yl]-2-pyridyl]-5-methyl-pyrazole-3-carbonitrile]",6.6 nM,669 nM,8.1 nM
"CC(=O)c1ccc(-n2cnc3ccc(Nc4ccc(C)nn4)cc32)nc1-n1nc(C#N)cc1C [Example 28, 1-[3-Acetyl-6-[6-[(6-methylpyridazin-3-yl)amino]benzimidazol-1-yl]-2-pyridyl]-5-methyl-pyrazole-3-carbonitrile]",111 nM,308 nM,184 nM
"CC(=O)c1ccc(-n2cnc3cc4c(cc32)CCN4)nc1-n1nc(C#N)cc1C [Example 31, 1-[3-acetyl-6-(6,7-dihydro-5H-pyrrolo[2,3-f]benzimidazol-1-yl)-2-pyridyl]-5-methyl-pyrazole-3-carbonitrile]",9.1 nM,13 nM,1230 nM
"Cc1ccc(Nc2ccc3ncn(-c4ccc(C=O)c(N5C[C@H](C#N)C[C@@H]5C)n4)c3c2)nn1 [Example 32, (3R,5S)-1-[3-formyl-6-[6-[(6-methylpyridazin-3-yl)amino]benzimidazol-1-yl]-2-pyridyl]-5-methyl-pyrrolidine-3-carbonitrile]",19.9 nM,43 nM,988 nM
"Cc1ccc(Nc2ccc3c(c2)ncn3-c2ccc(C=O)c(N3C[C@H](C#N)C[C@@H]3C)n2)nn1 [Example 33, (3R,5S)-1-[3-formyl-6-[5-[(6-methylpyridazin-3-yl)amino]benzimidazol-1-yl]-2-pyridyl]-5-methyl-pyrrolidine-3-carbonitrile]",95.1 nM,76 nM,562 nM

# Now from value to compound:
IC50 (SIK2),IC50 (SIK1),IC50 (SIK3),SMILES
41.4 nM,2330 nM,31.7 nM,"Cc1ccc(Nc2ccc3c(c2)ncn3-c2ccc(C(=O)C(F)(F)F)c(-n3nc(C#N)cc3C)n2)nn1 [Example 34, 5-methyl-1-[6-[5-[(6-methylpyridazin-3-yl)amino]benzimidazol-1-yl]-3-(2,2,2-trifluoroacetyl)-2-pyridyl]pyrazole-3-carbonitrile]"
115 nM,101 nM,150 nM,"CC(=O)c1ccc(-n2cnc3cc4c(cc32)C(C)(C)C(=O)N4c2ccc(C)nn2)nc1-n1nc(C#N)cc1C [Example 35, 1-[3-acetyl-6-[6-keto-7,7-dimethyl-5-(6-methylpyridazin-3-yl)pyrrolo[2,3-f]benzimidazol-1-yl]-2-pyridyl]-5-methyl-pyrazole-3-carbonitrile]"
5.2 nM,274 nM,0.7 nM,"Cc1ccc(Nc2ccc3c(c2)ncn3-c2ccc(C=O)c(-n3nc(C#N)cc3C)n2)nn1 [Example 36, 1-[3-formyl-6-[5-[(6-methylpyridazin-3-yl)amino]benzimidazol-1-yl]-2-pyridyl]-5-methyl-pyrazole-3-carbonitrile]"
502 nM,> 10000 nM,208 nM,"CC(=O)c1ccc(-n2cnc3cc(Nc4cccn(C)c4=O)ccc32)nc1-n1nc(C#N)cc1C [Example 37, 1-[3-acetyl-6-[5-[(2-keto-1-methyl-3-pyridyl)amino]benzimidazol-1-yl]-2-pyridyl]-5-methyl-pyrazole-3-carbonitrile]"
754 nM,3490 nM,1790 nM,"COc1nn(C)cc1-c1ccc2c(c1)ncn2-c1ccc(C(C)=O)c(-n2nc(C#N)cc2C)n1 [Example 38, 1-[3-acetyl-6-[5-(3-methoxy-1-methyl-pyrazol-4-yl)benzimidazol-1-yl]-2-pyridyl]-5-methyl-pyrazole-3-carbonitrile]"
43.7 nM,6580 nM,728 nM,"CC(=O)c1ccc(-n2cnc3cc(Nc4ccc(C5CCCN5)nn4)ccc32)nc1-n1nc(C#N)cc1C (stereo not drawn) [Example 39, 1-[3-acetyl-6-[5-[(6-pyrrolidin-2-ylpyridazin-3-yl)amino]benzimidazol-1-yl]-2-pyridyl]-5-methyl-pyrazole-3-carbonitrile]"
536 nM,> 30000 nM,8800 nM,"Cc1ccc(Nc2ccc3ncn(-c4ccc(C=O)c(-n5nc(C#N)cc5C)n4)c3c2)nn1 [Example 40, 1-[3-formyl-6-[6-[(6-methylpyridazin-3-yl)amino]benzimidazol-1-yl]-2-pyridyl]-5-methyl-pyrazole-3-carbonitrile]"
